Results as given in ChEMBL document CHEMBL1134574, “Synthesis and characterization of non-steroidal ligands for the glucocorticoid receptor: selective quinoline derivatives with prednisolone-equivalent functional activity” (J Med Chem, 2001).
pIC50, pKi: −log10 of the molar value.

Assays:
Glucocorticoid receptor = target: T1, Glucocorticoid receptor (Homo sapiens, UniProt P04150); test: Transcriptional activation in CV-1 cells expressing glucocorticoid receptor; assay type: functional, cell-based
T1 sequence (P04150 whole entry): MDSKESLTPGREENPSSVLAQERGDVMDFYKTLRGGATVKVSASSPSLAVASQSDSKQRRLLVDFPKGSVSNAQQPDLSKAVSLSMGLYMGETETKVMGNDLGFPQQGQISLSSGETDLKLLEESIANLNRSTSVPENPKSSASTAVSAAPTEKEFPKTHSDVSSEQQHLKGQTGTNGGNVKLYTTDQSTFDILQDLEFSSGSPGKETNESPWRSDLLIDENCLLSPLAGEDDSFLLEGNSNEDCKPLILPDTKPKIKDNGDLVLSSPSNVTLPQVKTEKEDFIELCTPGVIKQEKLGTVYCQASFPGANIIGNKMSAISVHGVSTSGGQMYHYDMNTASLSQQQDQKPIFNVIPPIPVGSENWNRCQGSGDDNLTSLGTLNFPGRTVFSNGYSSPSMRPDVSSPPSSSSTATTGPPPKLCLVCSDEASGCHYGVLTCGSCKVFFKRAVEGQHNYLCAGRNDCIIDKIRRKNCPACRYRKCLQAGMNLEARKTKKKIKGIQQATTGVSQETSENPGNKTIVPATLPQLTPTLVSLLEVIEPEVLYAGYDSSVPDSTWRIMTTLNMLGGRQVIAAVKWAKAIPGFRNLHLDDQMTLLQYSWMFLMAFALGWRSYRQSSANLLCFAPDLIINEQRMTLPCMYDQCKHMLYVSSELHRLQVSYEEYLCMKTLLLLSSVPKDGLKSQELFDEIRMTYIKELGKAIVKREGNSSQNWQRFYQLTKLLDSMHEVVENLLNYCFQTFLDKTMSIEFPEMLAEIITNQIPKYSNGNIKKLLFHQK

[1] = target: T2, Glucocorticoid receptor (Rattus norvegicus) (UniProt P06536); test: Anti-asthmatic effect as eosinophil influx in rat lung model; assay type: functional
T2 sequence (whole entry): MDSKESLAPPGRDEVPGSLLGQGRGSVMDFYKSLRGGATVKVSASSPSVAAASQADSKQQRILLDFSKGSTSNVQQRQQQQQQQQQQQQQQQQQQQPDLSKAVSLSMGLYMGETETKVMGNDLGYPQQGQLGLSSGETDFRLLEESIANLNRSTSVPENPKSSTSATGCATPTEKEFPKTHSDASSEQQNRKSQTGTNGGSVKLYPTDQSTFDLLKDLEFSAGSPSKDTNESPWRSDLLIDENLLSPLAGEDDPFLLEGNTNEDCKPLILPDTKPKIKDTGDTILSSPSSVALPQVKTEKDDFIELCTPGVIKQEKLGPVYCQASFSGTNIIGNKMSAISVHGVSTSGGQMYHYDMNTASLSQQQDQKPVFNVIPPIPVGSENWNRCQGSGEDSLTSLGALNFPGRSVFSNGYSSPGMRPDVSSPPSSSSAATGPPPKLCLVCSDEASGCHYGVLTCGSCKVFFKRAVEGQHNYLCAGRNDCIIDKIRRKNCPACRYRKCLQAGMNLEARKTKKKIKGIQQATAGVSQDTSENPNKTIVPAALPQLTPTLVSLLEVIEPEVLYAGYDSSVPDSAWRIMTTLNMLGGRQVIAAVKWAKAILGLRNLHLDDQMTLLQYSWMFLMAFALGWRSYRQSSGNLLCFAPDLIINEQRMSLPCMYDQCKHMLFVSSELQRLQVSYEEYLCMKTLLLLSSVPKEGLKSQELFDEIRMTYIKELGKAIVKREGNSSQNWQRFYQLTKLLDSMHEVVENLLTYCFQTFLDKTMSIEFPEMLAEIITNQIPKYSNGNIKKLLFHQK

Progesterone receptor = target: T3, Progesterone receptor (Homo sapiens, UniProt P06401); test: Binding affinity for progesterone receptor
T3 sequence (P06401 whole entry): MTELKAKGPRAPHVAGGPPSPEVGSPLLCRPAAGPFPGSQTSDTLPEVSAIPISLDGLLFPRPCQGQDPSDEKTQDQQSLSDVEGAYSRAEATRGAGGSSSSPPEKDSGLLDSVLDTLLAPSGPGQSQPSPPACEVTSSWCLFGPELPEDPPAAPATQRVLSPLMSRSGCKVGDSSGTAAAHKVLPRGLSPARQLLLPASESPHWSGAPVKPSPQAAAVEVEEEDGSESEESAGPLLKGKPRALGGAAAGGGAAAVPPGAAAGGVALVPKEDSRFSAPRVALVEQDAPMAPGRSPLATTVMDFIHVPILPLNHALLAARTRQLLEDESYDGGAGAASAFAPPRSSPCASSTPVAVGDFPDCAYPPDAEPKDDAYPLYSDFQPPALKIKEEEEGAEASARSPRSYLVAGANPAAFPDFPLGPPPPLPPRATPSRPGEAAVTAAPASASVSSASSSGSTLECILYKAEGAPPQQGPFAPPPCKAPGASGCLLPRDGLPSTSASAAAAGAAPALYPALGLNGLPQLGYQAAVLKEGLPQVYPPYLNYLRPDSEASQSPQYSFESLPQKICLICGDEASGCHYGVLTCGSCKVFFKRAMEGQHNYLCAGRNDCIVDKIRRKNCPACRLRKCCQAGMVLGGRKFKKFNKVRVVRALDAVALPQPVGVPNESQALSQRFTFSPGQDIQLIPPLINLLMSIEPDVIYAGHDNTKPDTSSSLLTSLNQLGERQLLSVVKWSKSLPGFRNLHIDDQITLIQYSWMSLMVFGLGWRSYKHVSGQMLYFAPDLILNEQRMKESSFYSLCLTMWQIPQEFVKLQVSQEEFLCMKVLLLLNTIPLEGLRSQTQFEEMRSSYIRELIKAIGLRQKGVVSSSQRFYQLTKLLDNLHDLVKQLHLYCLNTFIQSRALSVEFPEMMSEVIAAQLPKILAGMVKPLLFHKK

pIC50 (Glucocorticoid receptor): 8.05
ED50 [1]: 2.8 mg/kg
pKi (Progesterone receptor): < 5.30
SMILES: COc1cccc2c1-c1ccc3c(c1C(c1cccc(OCSC)c1)O2)C(C)=CC(C)(C)N3 (stereo not drawn)
